Measurements from US9737520B2, “Aclidinium for use in improving the quality of sleep in respiratory patients” (Almirall, S.A., priority 2011, dated 2017).

How the values were obtained:
[1] = system: patients with moderate-to-severe COPD; assay: Phase IIa randomised, double-blind, double-dummy, crossover trial; sleep difficulties score on patient diary card (Example 3); assay type: in vivo, human; details: 15 days; for average score (+/-SEM), change in sleep difficulties score with respect to baseline: aclidinium 400 μg BID, tiotropium 18 μg QD, score 0-4
Protocol: In a Phase IIa randomised, double-blind, double-dummy, crossover trial, patients with moderate-to-severe COPD received inhaled aclidinium 400 μg BID, tiotropium 18 μg QD and placebo for 15 days, with a 9-15 day washout between treatment periods.
The incidence of sleep difficulties was recorded daily on a patient diary card. As in Example 1, the scores ranged from 0 for none to 1-4 for increasing severity of the sleep difficulties. The change in the score produced by each treatment with respect to the baseline was then measured.

[2] = to two inactive metabolites; cited from earlier work
respiratory patients = details: administration in the evening versus only in the morning; cited from earlier work

Compound	average score (+/-SEM), change in sleep difficulties score with respect to baseline [1]	hydrolysis in human plasma [2]	statistical difference of the sleep difficulties score with placebo ([1]; aclidinium 400 μg BID (p<0.05), tiotropium 18 μg QD (p>0.05))	bronchodilation during the night (respiratory patients)
O=C(O[C@H]1C[N+]2(CCCOc3ccccc3)CCC1CC2)C(O)(c1cccs1)c1cccs1 [aclidinium, 3(R)-(2-hydroxy-2,2-dithien-2-ylacetoxy)-1-(3-phenoxypropyl)-1-azoniabicyclo[2.2.2]octane]	−0.123 (0.089)	rapidly hydrolysed		
C[N+]1(C)[C@@H]2C[C@@H](OC(=O)C(O)(c3cccs3)c3cccs3)C[C@H]1[C@@H]1O[C@@H]12 [tiotropium]	−0.011 (0.091)		no statistically significant difference	does not produce more bronchodilation during the night
